Reference: US11547697B2, “Heterocyclic compounds and uses thereof” (MILLENNIUM PHARMACEUTICALS, INC., priority 2009, dated 2023)
“Also recorded” adds a separate entry of the source.

Key:
p110α/p85α = p110α/p85α (Homo sapiens (Human), UniProt P42336); assay: PI 3-Kinase (human) HTRF assay, p110α/p85α; type: biochemical; settings: PI3K α compared with β, δ, γ
Method: An exemplary system is PI 3-Kinase (human) HTRF™ Assay from Upstate. […] Briefly, the assay is a time resolved FRET assay that indirectly measures PIP3 product formed by the activity of a PI3-K. The kinase reaction is performed in a microtitre plate (e.g., a 384 well microtitre plate). The total reaction volume is approximately 20 ul per well. In the first step, each well receives 2 ul of test compound in 20% dimethylsulphoxide resulting in a 2% DMSO final concentration. Next, approximately 14.5 ul of a kinase/PIP2 mixture (diluted in 1× reaction buffer) is added per well for a final concentration of 0.25-0.3 ug/ml kinase and 10 μM PIP2. The plate is sealed and incubated for 15 minutes at room temperature. To start the reaction, 3.5 ul of ATP (diluted in 1× reaction buffer) is added per well for a final concentration of 10 μM ATP. The plate is sealed and incubated for 1 hour at room temperature. The reaction is stopped by adding 5 ul of Stop Solution per well and then 5 ul of Detection Mix is added per well. The plate is sealed, incubated for 1 hour at room temperature, and then read on an appropriate plate reader. Data is analyzed and IC50s are generated using GraphPad Prism 5. […] For PI3K α, β, δ, and γ, the nM concentration of inhibitor to reach IC50 is provided.

p110γ = p110γ (Homo sapiens (Human), UniProt P48736); assay: PI 3-Kinase (human) HTRF assay, p110γ; type: biochemical; settings: read-out: PI3K γ IC50
p110γ, sequence (P48736 whole entry): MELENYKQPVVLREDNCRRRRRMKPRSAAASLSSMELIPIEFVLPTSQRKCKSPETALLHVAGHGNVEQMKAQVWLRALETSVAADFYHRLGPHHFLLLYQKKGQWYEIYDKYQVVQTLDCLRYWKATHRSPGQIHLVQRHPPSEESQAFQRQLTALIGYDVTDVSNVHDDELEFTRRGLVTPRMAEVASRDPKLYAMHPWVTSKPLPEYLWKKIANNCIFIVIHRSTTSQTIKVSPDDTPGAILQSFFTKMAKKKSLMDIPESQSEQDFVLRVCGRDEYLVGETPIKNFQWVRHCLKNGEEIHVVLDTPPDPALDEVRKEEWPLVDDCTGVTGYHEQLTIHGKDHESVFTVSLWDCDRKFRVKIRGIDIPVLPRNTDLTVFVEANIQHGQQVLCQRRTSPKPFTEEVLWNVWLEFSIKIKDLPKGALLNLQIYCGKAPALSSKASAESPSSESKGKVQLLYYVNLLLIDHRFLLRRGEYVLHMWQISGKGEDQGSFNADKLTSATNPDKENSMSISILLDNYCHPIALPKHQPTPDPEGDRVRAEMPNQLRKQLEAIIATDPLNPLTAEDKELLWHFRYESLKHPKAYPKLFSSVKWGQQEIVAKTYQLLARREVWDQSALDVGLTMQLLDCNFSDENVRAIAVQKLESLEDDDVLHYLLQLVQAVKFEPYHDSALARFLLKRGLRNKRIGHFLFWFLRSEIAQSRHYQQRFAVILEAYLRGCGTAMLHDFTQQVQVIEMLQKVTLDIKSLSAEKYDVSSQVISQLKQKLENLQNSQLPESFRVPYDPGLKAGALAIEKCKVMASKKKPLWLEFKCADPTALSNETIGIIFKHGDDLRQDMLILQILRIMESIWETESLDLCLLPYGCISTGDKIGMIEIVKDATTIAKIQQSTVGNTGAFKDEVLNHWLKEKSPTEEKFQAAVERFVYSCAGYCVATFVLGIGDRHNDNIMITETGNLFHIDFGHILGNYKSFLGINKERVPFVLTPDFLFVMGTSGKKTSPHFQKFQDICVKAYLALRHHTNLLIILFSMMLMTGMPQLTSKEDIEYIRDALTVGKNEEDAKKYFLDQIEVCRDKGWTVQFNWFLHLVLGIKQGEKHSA

[1] = system: pAKT(S473), pAKT(T308), pS6, p4E-BP1 in MDA-MB-361, T47D, PC3 cells; assay: Inhibition of PI3K pathway in tumor cells (Western blot of pAKT, pS6, p4E-BP1); type: cell-based; settings: FIG. 2; 0.1 μM, 1 μM, and 10 μM, about 2 hours
Method: Cells comprising one or more mutations in PI3Kα, including but not limited to breast cancer cells (e.g., MDA-MB-361 and T47D), and cells comprising one or more mutations in PTEN including but not limited to prostate cancer cells (e.g., PC3), are typically grown in cell growth media such as DMEM supplemented with fetal bovine serum and/or antibiotics, and grown to confluency. Cells are then treated with various concentrations of test compound for about 2 hours and subsequently lysed in cell lysis buffer. Lysates are subjected to SDS-PAGE followed by Western blot analysis to detect downstream signaling markers, including but not limited to pAKT(S473), pAKT(T308), pS6, and p4E-BP1.

[2] = system: tumor cells with a PI3Kα mutation (e.g., MDA-MB-361 and T47D); assay: Proliferation of tumor cells with PI3Kα mutation; type: cell-based
[3] = system: human umbilical vein endothelial cells (HUVEC); assay: In vitro inhibition of angiogenesis, tube formation assay; type: cell-based; settings: FIG. 3
Method: Inhibition of angiogenesis in the presence of test compound is evaluated using a tube formation assay, such as by using a tube formation assay kit (e.g., commerically available from Invitrogen). Angiogenic capacity can be measured in vitro using an endothelial cell line, such as human umbilical vein endothelial cells (HUVEC). The assay is conducted according to the kit instructions, in the presence or absence of compound. Briefly, a gel matrix is applied to a cell culture surface, cells are added to the matrix-covered surface along with growth factors, with some samples also receiving an inhibitor compound, cells are incubated at 37° C. and 5% CO2 long enough for control samples (no compound added) to form tube structures (such as overnight), cells are stained using a cell-permeable dye (e.g., calcein), and cells are visualized to identify the degree of tube formation. Any decrease in tube formation relative to un-inhibited control cells is indicative of angiogenic inhibition. […] Based on doses tested and the corresponding degree of tube formation inhibition, IC50 values for tube formation are calculated. FIG. 3 also provides IC50 values for cell viability, which can be measured using any number of methods known in the art, such as staining methods that distinguish live from dead cells (e.g., Image-iT DEAD Green viability stain commercially available from Invitrogen).

[4] = system: 786-O cells, a human kidney carcinoma cell line; assay: In vivo efficacy in 786-O xenograft (non-mutated PI3Kα); parameters: species or system mice; settings: FIG. 6
Text: For example, a test compound is compared to a kinase inhibitor with specificity for mTor. […] FIG. 6 also provides biochemical potency data for the two compared inhibitors.

HCT116 cells = assay: Cell arrest assay, alone and in combination with MEK inhibitor; type: cell-based, human
Method: Cells are then incubated in the presence of DMSO or inhibitor for 20 hours. The number of cells at each stage in the cell cycle is determined and expressed as a percent of the total, with an increase in the number of cells arrested at pre-GO/G1 indicating effective inhibition of cell cycle progression.

[5] = system: MDA-MB-361 (PI3Kα/HER2 carcinoma) tumors; assay: In vivo efficacy in xenogenic mouse model of breast cancer
Method: Blood glucose is monitored periodically following administration of treatment. […] The effect of the compounds on the localization/viability of marginal zone B cells in the spleen is also evaluated at the conclusion of treatment.

p110α/p85α, sequence (P42336 whole entry): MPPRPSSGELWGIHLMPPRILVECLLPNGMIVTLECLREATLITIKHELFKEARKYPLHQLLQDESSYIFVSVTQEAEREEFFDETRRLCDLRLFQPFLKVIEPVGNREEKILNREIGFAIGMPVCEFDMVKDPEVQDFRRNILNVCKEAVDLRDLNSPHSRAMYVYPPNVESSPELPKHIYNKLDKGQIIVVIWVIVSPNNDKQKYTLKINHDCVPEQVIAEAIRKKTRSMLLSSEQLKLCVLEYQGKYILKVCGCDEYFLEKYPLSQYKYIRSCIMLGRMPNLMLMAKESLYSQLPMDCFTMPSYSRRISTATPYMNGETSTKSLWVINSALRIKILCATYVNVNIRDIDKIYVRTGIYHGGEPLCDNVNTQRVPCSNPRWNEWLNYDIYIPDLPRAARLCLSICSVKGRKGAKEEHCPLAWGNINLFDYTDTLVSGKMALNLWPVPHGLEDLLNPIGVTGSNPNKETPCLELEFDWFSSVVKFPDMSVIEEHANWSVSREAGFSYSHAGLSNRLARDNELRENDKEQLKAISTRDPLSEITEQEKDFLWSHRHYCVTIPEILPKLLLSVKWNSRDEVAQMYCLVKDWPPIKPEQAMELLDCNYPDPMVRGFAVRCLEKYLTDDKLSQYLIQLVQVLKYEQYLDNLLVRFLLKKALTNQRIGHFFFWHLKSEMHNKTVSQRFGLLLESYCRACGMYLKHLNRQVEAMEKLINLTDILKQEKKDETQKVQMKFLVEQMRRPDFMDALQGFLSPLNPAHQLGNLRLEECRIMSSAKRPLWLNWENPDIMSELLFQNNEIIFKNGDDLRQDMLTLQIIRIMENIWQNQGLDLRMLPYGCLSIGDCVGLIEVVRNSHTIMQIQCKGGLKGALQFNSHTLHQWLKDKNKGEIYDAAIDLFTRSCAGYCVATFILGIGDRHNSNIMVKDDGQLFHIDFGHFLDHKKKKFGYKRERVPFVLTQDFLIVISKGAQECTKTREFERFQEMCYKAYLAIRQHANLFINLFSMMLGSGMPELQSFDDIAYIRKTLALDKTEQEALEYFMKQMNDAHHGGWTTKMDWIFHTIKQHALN
p110α/p85α, sequence (P27986 whole entry partner): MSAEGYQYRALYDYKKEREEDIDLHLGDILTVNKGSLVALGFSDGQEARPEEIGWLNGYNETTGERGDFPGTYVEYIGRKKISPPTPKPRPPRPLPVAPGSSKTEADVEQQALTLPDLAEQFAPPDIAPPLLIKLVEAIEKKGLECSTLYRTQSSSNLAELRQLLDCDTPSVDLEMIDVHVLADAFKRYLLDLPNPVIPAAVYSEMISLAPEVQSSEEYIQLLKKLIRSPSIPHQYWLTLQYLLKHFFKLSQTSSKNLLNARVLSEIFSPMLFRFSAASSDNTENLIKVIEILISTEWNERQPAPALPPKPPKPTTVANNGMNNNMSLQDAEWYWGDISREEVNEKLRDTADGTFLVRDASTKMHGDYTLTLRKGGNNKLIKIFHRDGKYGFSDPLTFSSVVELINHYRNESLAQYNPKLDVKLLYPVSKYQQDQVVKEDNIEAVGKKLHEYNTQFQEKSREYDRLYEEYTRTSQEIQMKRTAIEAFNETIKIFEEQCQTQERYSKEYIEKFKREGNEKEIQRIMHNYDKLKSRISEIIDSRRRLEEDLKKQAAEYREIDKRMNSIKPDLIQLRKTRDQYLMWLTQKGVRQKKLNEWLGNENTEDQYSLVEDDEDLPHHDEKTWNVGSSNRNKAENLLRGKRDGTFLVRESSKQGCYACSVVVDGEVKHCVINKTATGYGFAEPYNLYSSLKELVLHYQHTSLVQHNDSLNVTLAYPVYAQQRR

Nc1nc2cc(-c3ccc4ncc(C(=O)N5CCOCC5)n4c3)ccc2o1 [compound 54]
Specificity of PI3K α inhibition versus PI3K β, δ and γ (IC50, FIG. 1 / FIG. 3) (p110α/p85α): Inhibition of PI3K α at lower concentrations than those for β, δ, and γ; also recorded: specificity for PI3K α inhibition | IC50 (p110γ): < 10 µM | Inhibition of the PI3K pathway (downstream signaling markers) [1]: inhibits the PI3K pathway | Inhibition of proliferation of tumor cells with a PI3Kα mutation ([2]; FIG. 2): inhibits the PI3K pathway and the proliferation of tumor cells with a PI3Kα mutation | IC50 ([2]; Homo sapiens, T47D cells, read-out: T47D proliferation): < 10 µM | Potency of angiogenesis inhibition (tube formation) compared with Pan-PI3K inhibitor [3]: comparable to higher potency | Anti-tumor activity in 786-O tumors [4]: still showing some anti-tumor activity, has decreased activity by comparison to that seen in the MDA derived tumors | Arrested cells (pre-GO/G1), percent of the total (HCT116 cells; 3 μM compound 54 combined with 0.3 μM MEK inhibitor (PD0325901), 20 hours, FIG. 7): 55% | Cell cycle arrest, single inhibitor versus DMSO control (HCT116 cells; 3 μM compound 54 or 0.3 μM PD0325901, 20 hours): some increase in cell cycle arrest by comparison to DMSO control | Combination effect with other (MEK) inhibitors (HCT116 cells; compound 54 plus MEK inhibitor): synergistic | Arrested cells expected by merely adding the individual effects (HCT116 cells; sum of 3 μM compound 54 alone and 0.3 μM MEK inhibitor alone, 20 hours): 40% | Impact on blood glucose ([5]; MDA-MB-361 tumor-bearing nude mice, daily oral dosing, FIG. 4): without the impact on blood glucose | Kinase- and tumor growth-inhibition activity ([5]; MDA-MB-361 tumors in nude mice, 30 mpk or 60 mpk test compound, 70 mpk Pan-PI3K inhibitor, daily oral lavage, FIG. 4): comparable kinase- and tumor growth-inhibition activity to the Pan-PI3K inhibitor | Localization/viability of marginal zone B cells in the spleen ([5]; at conclusion of treatment, FIG. 5): does not affect localization/viability of marginal zone B cells
